Assay results: patent publication US11970505B1, “Pyridino-2,16-dioxapentacyclo[7.7.5.01,21.03,8.010,15]henicosa3(8),10,12,14-tetraene-7,20-dione as an antimicrobial compound” (KING FAISAL UNIVERSITY, priority 2023, dated 2024)

Key:
Format in all cases: cell-based
Settings in all cases: after 10, 20, 40 and 60 minutes at all dilutions 1:100, 1:200, 1:400, and 1:800
Escherichia coli = test: Antimicrobial activity by agar dilution, E. Coli
Protocol: (§1) The antibacterial properties of the synthesized compound (pyridino-2,16-dioxapentacyclo[7.7.5.0^1,21.0^3,8.0^10,15]henicosa3(8),10,12,14-tetraene-7,20-dione) were studied by the method of agar dilution. Test solutions of each compound was prepared in concentration of 1% using dimethylformamide as a solvent. Then they were diluted in physiological solution to obtain the final experimental dilutions of 1:100, 1:200, 1:400, and 1:800. The effect of these substances were compared with furacillin in a controllable study. The testing microbes used were gram positive bacteria Staphylococcus aureus, gram negative bacteria Pseudomonas aeruginosa, Escherichia coli, and Candida albicans fungus. The experiments used for this survey were meat-pentonlu agar (EPA) for cultivation of bacteria and Saburo environment for fungi. Each experiment used 1 mL of test solution on each plate for 500 minutes. Two drops of emulsified with microbes feel were added. All experimental samples were taken from the agar after 10, 20, 40, 60 minutes in the environment on the basis of Patrk planted. Bacteria were cultivated at a temperature of 37° C. for 1 day and the mushroom was kept in a thermostat for […] at a temperature of 28° C. Then results were checked. Those of control and the antimicrobial activity for the synthesized compounds are listed in Table 1 below, with furacillin serving as a reference.

Staphylococcus aureus = test: Antimicrobial activity by agar dilution, St. Aereus
Protocol: as §1

Pseudomonas aeruginosa = test: Antimicrobial activity by agar dilution, Ps. aeruginosa
Protocol: as §1

Candida albicans = test: Antimicrobial activity by agar dilution, Candida albicans
Protocol: as §1

O=C1CCCC2=C1C1c3cccnc3OC3(CCCC(=O)C13)O2 (stereo not shown) [pyridino-2,16-dioxapentacyclo[7.7.5.0^1,21.0^3,8.0^10,15]henicosa3(8),10,12,14-tetraene-7,20-dione]
higher inhibition activity: inhibition activity compared with Furacilin, Escherichia coli (Escherichia coli) | inhibition activity compared with Furacilin, Staphylococcus aureus (Staphylococcus aureus) | inhibition activity compared with Furacilin, Pseudomonas aeruginosa (Pseudomonas aeruginosa) | inhibition activity compared with Furacilin, Candida albicans (Candida albicans)
